Measured values published in PubChem BioAssay AID2060506 (Molecular Pharmacology Branch, DTP, NCI, 2025).
Values joined by “and” are separate entries in the source; they are usually repeats but may differ in a detail not shown here. Equal entries are not always repeated.

Tested on: 598228-144-R-J1-PDC complex spheroid viability
Experiment: Anticancer human tumor 598228-144-R-J1-PDC patient-derived serous endometrial adenocarcinoma cell line growth inhibition [GQUAD]
Details: for viability, T/C: stronger effect = lower value; active means viability on the fitted dose curve at most 10% of control; inactive means the rest
Text: DNA G-quadruplex Stabilizer Agents in Combinations in Complex Spheroids
A high-throughput screen of multi-cell type tumor spheroids was designed to identify active combinations of DNA G-quadruplex stabilizer agents and targeted small molecules. Complex spheroids include a stromal component modeled by human endothelial cells (HUVEC) and fibroblasts modeled by human mesenchymal stem cells (MSCs). The concentration ranges selected for each drug and investigational agent were based upon clinically achievable concentrations if the clinical Cmax of the agent was known.
Compounds. The drugs and investigational agents: pidnarulex (CX-5461; NSC782164), APTO-253 (NSC789042), BRACO-19 (NSC847499), peposertib (NSC802822), ceralasertib (NSC780249), elimusertib (NSC800525), camonsertib (NSC841442), AZD-1390 (NSC803789), olaparib (NSC753686), talazoparib (NSC767125), ART-558 (NSC835418), sotorasib (NSC818433), MRTX-1133 (NSC836407), SN-38 (NSC673596), topotecan (NSC609699), etoposide (NSC141540), doxorubicin (NSC123127), gemcitabine (NSC613327), 5-fluorouracil (NSC19893), paclitaxel (NSC125973), vemurafenib (NSC761431), panobinostat (NSC761190), R-306465 (JNJ-16241199; NSC773264), adavosertib (NSC754352), TP-3654 (NSC805149), carboplatin (NSC241240), KSQ-4279 (NSC840948), and staurosporine (NSC755774) were obtained from the National Cancer Institute (NCI) Developmental Therapeutics Program Chemical Repository (34). The FDA-approved anticancer drug set is available from the NCI Developmental Therapeutics Program. […] The stock solutions were prepared in dimethyl sulfoxide (DMSO, Sigma-Aldrich, St. Louis, MO, cat. D2650) at 800-fold the tested concentration and stored at -70 degrees C prior to their use. All drugs and investigational agents were tested over a range starting from a high concentration at or near the clinical Cmax and decreasing in half-log increments. If the clinical Cmax for an agent had not been determined, the highest concentration tested was 10 microM.
2.3 Cell Culture. All cells were maintained in an incubator at 37 degrees C and 5% CO2 with 95% humidity. The PDC lines were cultured according to standard operating procedures established by the NCI PDMR. All PDCs were thawed and cultured in Matrigel-coated flasks prepared with a working solution of 1X Ham's F-12 nutrient mix, without supplementation (Invitrogen, cat. 11765054), 100 U/mL penicillin-streptomycin (Invitrogen, cat. 15140122), and 2.5% Matrigel (Corning Inc., cat. 354248) for the first three passages. The 857933-349-R-J2-PDC line was cultured in 6C/Colon 1B media, which includes advanced DMEM/F-12 (Thermo Fisher Scientific, cat. 12634028), 10 mM HEPES (Thermo Fisher Scientific, cat. 15630080), 1X GlutaMAX supplement (Thermo Fisher Scientific, cat. 35050061), 0.1 mg/mL primocin (InvivoGen, cat. ant-pm-2), 10% defined fetal bovine serum, heat inactivated (HyClone Laboratories Inc., cat. SH30070.03HI), 50% L-WRN conditioned media (ATCC, cat. CRL-3276), 1.25 mM N-Acetyl-L-cysteine (Sigma-Aldrich, cat. A9165), 10 mM nicotinamide (Sigma-Aldrich, cat. N0636), 1X B-27 supplement (Thermo Fisher Scientific, cat. 17504044), 1X N-2 supplement (Thermo Fisher Scientific, cat. 17502048), 10 microM Y-27632 dihydrochloride (Tocris Bioscience, cat. 1254), and 50 ng/mL human EGF recombinant protein (Thermo Fisher Scientific, cat. PHG0311). The 485176-168-R4-J1-PDC line was cultured in Panc media, which includes all 6C/Colon 1B media components plus 100 ng/mL human FGF-10 (Thermo Fisher Scientific, cat. 100-26), 500 nM SB-431542 (Selleckchem, cat. S1067), and gastrin (Tocris, cat. 3006).
[…]

[1] = curve of first compound, second compound 0.0316 µM
[2] = curve of first compound, second compound 0.1 µM
[3] = curve of first compound, second compound 0.316 µM
[4] = curve of first compound, second compound 1 µM
[5] = curve of first compound, second compound 3.16 µM
[6] = curve of first compound, second compound 10 µM
[7] = second compound 0.0316 µM, first compound 0.0316 µM
[8] = second compound 0.0316 µM, first compound 0.1 µM
[9] = second compound 0.0316 µM, first compound 0.316 µM
[10] = second compound 0.0316 µM, first compound 1 µM
[11] = second compound 0.0316 µM, first compound 3.16 µM
[12] = second compound 0.0316 µM, first compound 10 µM
[13] = second compound 0.1 µM, first compound 0.0316 µM
[14] = second compound 0.1 µM, first compound 0.1 µM
[15] = second compound 0.1 µM, first compound 0.316 µM
[16] = second compound 0.1 µM, first compound 1 µM
[17] = second compound 0.1 µM, first compound 3.16 µM
[18] = second compound 0.1 µM, first compound 10 µM
[19] = second compound 0.316 µM, first compound 0.0316 µM
[20] = second compound 0.316 µM, first compound 0.1 µM
[21] = second compound 0.316 µM, first compound 0.316 µM
[22] = second compound 0.316 µM, first compound 1 µM
[23] = second compound 0.316 µM, first compound 3.16 µM
[24] = second compound 0.316 µM, first compound 10 µM
[25] = second compound 1 µM, first compound 0.0316 µM
[26] = second compound 1 µM, first compound 0.1 µM
[27] = second compound 1 µM, first compound 0.316 µM
[28] = second compound 1 µM, first compound 1 µM
[29] = second compound 1 µM, first compound 3.16 µM
[30] = second compound 1 µM, first compound 10 µM
[31] = second compound 3.16 µM, first compound 0.0316 µM
[32] = second compound 3.16 µM, first compound 0.1 µM
[33] = second compound 3.16 µM, first compound 0.316 µM
[34] = second compound 3.16 µM, first compound 1 µM
[35] = second compound 3.16 µM, first compound 3.16 µM
[36] = second compound 3.16 µM, first compound 10 µM
[37] = second compound 10 µM, first compound 0.0316 µM
[38] = second compound 10 µM, first compound 0.1 µM
[39] = second compound 10 µM, first compound 0.316 µM
[40] = second compound 10 µM, first compound 1 µM
[41] = second compound 10 µM, first compound 3.16 µM
[42] = second compound 10 µM, first compound 10 µM
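Further: spheroids exposed to the agents for one week before reading.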
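Wherever viability, T/C is given: percent of vehicle DMSO control viability so 100% = untreated growth.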

CC(C)n1c(=O)n(C)c2cnc3cc(F)c(-c4ccc(OCCCN5CCCCC5)nc4)cc3c21
> 10 µM: IC50 (curve of compound)
inactive: viability, T/C (compound 0.0316 µM) 109% and 90.8% and 106% | viability, T/C (compound 0.1 µM) 91.9% and 85.2% and 84.2% | viability, T/C (compound 0.316 µM) 101% and 92.4% and 109% | viability, T/C (compound 1 µM) 115% and 111% and 96.7% | viability, T/C (compound 3.16 µM) 94.2% and 74.5% and 67.8% | viability, T/C (compound 10 µM) 60.8% and 56.7% and 68.5%

C#Cc1c(F)ccc2cc(O)cc(-c3ncc4c(N5CC6CCC(C5)N6)nc(OCC56CCCN5CC(F)C6)nc4c3F)c12 (stereo not drawn) + Cc1cnc(CNC(=O)c2c(=O)c3ccc(N4CCCN(C)CC4)nc3n3c2sc2ccccc23)cn1
0.0316 µM: IC50 [5]
inactive: viability, T/C [7] 99.8% | viability, T/C [8] 88.6% | viability, T/C [9] 85.6% | viability, T/C [10] 83.2% | viability, T/C [11] 101% | viability, T/C [12] 81.7% | viability, T/C [13] 64.3% | viability, T/C [14] 77.7% | viability, T/C [15] 71.6% | viability, T/C [16] 63.7% | viability, T/C [17] 69.7% | viability, T/C [18] 68.7% | viability, T/C [19] 75% | viability, T/C [20] 58.8% | viability, T/C [21] 62.7% | viability, T/C [22] 55.4% | viability, T/C [23] 69.9% | viability, T/C [24] 53.1% | viability, T/C [25] 57% | viability, T/C [26] 53.4% | viability, T/C [27] 54% | viability, T/C [28] 58.9% | viability, T/C [29] 52.4% | viability, T/C [30] 46.1% | viability, T/C [31] 46.5% | viability, T/C [32] 50.9% | viability, T/C [33] 46.8% | viability, T/C [34] 40.5% | viability, T/C [35] 52.2% | viability, T/C [36] 27.9% | viability, T/C [37] 25.5% | viability, T/C [38] 30.3% | viability, T/C [39] 20.4% | viability, T/C [40] 24.2%
8.91 µM: IC50 [4]
< 0.0316 µM: IC50 [6]
active: viability, T/C [41] 7.19% | viability, T/C [42] 0.48%
> 10 µM: IC50 [1] | IC50 [2] | IC50 [3]

C#Cc1c(F)ccc2cc(O)cc(-c3ncc4c(N5CC6CCC(C5)N6)nc(OCC56CCCN5CC(F)C6)nc4c3F)c12 (stereo not drawn)
inactive: viability, T/C (compound 0.0316 µM) 103% and 107% and 96.2% | viability, T/C (compound 0.1 µM) 98.9% and 118% and 97.6% | viability, T/C (compound 0.316 µM) 106% (2×) and 98.1% | viability, T/C (compound 1 µM) 100% and 101% and 92.4% | viability, T/C (compound 3.16 µM) 96.8% and 99.4% and 96.6% | viability, T/C (compound 10 µM) 84.1% and 105% and 83.3%
> 10 µM: IC50 (curve of compound)

O=C(c1cc(Cc2n[nH]c(=O)c3ccccc23)ccc1F)N1CCN(C(=O)C2CC2)CC1 + Cc1cnc(CNC(=O)c2c(=O)c3ccc(N4CCCN(C)CC4)nc3n3c2sc2ccccc23)cn1
< 0.0316 µM: IC50 [6]
inactive: viability, T/C [7] 82.4% | viability, T/C [8] 89.4% | viability, T/C [9] 73% | viability, T/C [10] 68.7% | viability, T/C [11] 84.4% | viability, T/C [12] 63.2% | viability, T/C [13] 70.9% | viability, T/C [14] 75.6% | viability, T/C [15] 63.8% | viability, T/C [16] 63.1% | viability, T/C [17] 63% | viability, T/C [18] 67.8% | viability, T/C [19] 57% | viability, T/C [20] 60.9% | viability, T/C [21] 68.1% | viability, T/C [22] 65.2% | viability, T/C [23] 58.8% | viability, T/C [24] 49.1% | viability, T/C [25] 62.2% | viability, T/C [26] 51.3% | viability, T/C [27] 55.7% | viability, T/C [28] 54.1% | viability, T/C [29] 72.3% | viability, T/C [30] 56% | viability, T/C [31] 58.1% | viability, T/C [32] 57.8% | viability, T/C [33] 67.9% | viability, T/C [34] 53.2% | viability, T/C [35] 57.3% | viability, T/C [36] 48.9% | viability, T/C [37] 41.5% | viability, T/C [38] 49.6% | viability, T/C [39] 40.6% | viability, T/C [40] 56.8% | viability, T/C [41] 73.1% | viability, T/C [42] 47.3%
> 10 µM: IC50 [1] | IC50 [2] | IC50 [4] | IC50 [5]
9.02 µM: IC50 [3]
